Results reported in paper PMC11792831, “Design and synthesis of doublecortin-like kinase 1 inhibitors and their bioactivity evaluation” (Journal of Enzyme Inhibition and Medicinal Chemistry, 2023).

How the values were obtained:
HCT116 = assay: In vitro cytotoxicity / anti-proliferation assay (CCK8); format: cell-based; conditions: Homo sapiens, HCT-116, colorectal cancer cell line HCT116, 72 h
Experimental: To determine whether DCLK1 was required for tumour cell proliferation, the cytotoxicity of compounds was evaluated in colorectal cancer cell line HCT116. HCT116 was treated with compounds for 72 h, and the cell viability was determined using CCK8 assay (Figure 4). The antiproliferative effects of most compounds on HCT116 were correlated with their DCLK1 inhibitory activities, except for compounds D1 and D2. The poor cytotoxicity of compounds D1 and D2 may be attributed to their poor cell membrane permeability due to the negatively charged carboxylates. […] Overall, targeting DCLK1 inhibited the proliferation of HCT116, indicating the importance of DCLK1 in tumour growth.
A 96-well plate (3599, Corning, USA) was inoculated with 100 μL of complete medium containing 10 000 cells, and the experimental, control, and blank groups were established. Three parallel wells were used per concentration. After 10 h, media from the experimental and control groups were replaced with a complete medium containing the indicated concentration of the compound. Cells were incubated for 72 h before 10 μL of CCK8 reagent (CA1210, Solarbio, China) was added to each well and incubated for 1 h. The absorbance at 450 nm was measured with a microplate reader (Tecan, Switzerland). The IC50 was determined using GraphPad Prism 8 and nonlinear regression curve fitting.

LRRK2 = biological target: T1, LRRK2 (Homo sapiens, UniProt Q5S007); assay: In vitro LRRK2 kinase activity assay (Eurofins); format: biochemical; conditions: for activity at 1 µM: remaining kinase activity at 1 uM compound, 100% = no inhibition, 0% = complete inhibition
T1 construct: purchased Eurofins (Belgium), contract assay service
Experimental: All compounds were tested for their kinase inhibitory activity at the concentration of 1 μM. […] Compounds with high activity or good selectivity were selected for further IC50 determination (Table 2).
(§1) Eurofins (Belgium) conducted in vitro DCLK1 and LRRK2 kinase activity assays. Compounds were sent as dry powders to Eurofins.

DCLK1 = biological target: T2, DCLK1 (Homo sapiens, UniProt O15075); assay: In vitro DCLK1 kinase activity assay (Eurofins); format: biochemical; conditions: for Selectivity (IC50 of DCLK1/IC50 of LRRK2): ratio of IC50 values; for Selectivity (DCLK1 activity/LRRK2 activity): ratio of remaining activities at 1 uM; for IC50: read-out: IC50 of DCLK1; for activity at 1 µM: remaining kinase activity at 1 uM compound, 100% = no inhibition, 0% = complete inhibition, read-out: DCLK1 activity (%)
T2 construct: purchased Eurofins (Belgium), contract assay service
T2 sequence (O15075 1-740): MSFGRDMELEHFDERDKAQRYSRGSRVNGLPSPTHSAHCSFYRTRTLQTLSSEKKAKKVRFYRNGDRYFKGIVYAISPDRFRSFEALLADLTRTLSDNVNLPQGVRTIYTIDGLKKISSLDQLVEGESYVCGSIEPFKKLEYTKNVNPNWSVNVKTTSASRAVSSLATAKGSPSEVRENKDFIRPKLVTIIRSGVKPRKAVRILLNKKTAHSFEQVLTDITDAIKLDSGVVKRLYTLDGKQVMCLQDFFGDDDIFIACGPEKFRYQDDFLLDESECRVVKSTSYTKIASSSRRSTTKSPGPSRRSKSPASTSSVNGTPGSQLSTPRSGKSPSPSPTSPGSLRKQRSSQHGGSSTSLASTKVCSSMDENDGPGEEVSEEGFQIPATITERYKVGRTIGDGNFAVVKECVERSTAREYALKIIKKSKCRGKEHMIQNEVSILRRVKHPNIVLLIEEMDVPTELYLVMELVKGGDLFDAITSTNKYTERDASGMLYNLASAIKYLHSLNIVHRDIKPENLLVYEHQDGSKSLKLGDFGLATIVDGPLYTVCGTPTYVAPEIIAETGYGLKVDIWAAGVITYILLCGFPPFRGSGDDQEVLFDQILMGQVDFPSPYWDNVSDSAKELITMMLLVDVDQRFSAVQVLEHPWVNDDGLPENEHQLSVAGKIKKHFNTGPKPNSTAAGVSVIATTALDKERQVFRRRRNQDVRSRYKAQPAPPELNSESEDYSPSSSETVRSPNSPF
Text: as §1

T1 sequence (Q5S007 whole entry): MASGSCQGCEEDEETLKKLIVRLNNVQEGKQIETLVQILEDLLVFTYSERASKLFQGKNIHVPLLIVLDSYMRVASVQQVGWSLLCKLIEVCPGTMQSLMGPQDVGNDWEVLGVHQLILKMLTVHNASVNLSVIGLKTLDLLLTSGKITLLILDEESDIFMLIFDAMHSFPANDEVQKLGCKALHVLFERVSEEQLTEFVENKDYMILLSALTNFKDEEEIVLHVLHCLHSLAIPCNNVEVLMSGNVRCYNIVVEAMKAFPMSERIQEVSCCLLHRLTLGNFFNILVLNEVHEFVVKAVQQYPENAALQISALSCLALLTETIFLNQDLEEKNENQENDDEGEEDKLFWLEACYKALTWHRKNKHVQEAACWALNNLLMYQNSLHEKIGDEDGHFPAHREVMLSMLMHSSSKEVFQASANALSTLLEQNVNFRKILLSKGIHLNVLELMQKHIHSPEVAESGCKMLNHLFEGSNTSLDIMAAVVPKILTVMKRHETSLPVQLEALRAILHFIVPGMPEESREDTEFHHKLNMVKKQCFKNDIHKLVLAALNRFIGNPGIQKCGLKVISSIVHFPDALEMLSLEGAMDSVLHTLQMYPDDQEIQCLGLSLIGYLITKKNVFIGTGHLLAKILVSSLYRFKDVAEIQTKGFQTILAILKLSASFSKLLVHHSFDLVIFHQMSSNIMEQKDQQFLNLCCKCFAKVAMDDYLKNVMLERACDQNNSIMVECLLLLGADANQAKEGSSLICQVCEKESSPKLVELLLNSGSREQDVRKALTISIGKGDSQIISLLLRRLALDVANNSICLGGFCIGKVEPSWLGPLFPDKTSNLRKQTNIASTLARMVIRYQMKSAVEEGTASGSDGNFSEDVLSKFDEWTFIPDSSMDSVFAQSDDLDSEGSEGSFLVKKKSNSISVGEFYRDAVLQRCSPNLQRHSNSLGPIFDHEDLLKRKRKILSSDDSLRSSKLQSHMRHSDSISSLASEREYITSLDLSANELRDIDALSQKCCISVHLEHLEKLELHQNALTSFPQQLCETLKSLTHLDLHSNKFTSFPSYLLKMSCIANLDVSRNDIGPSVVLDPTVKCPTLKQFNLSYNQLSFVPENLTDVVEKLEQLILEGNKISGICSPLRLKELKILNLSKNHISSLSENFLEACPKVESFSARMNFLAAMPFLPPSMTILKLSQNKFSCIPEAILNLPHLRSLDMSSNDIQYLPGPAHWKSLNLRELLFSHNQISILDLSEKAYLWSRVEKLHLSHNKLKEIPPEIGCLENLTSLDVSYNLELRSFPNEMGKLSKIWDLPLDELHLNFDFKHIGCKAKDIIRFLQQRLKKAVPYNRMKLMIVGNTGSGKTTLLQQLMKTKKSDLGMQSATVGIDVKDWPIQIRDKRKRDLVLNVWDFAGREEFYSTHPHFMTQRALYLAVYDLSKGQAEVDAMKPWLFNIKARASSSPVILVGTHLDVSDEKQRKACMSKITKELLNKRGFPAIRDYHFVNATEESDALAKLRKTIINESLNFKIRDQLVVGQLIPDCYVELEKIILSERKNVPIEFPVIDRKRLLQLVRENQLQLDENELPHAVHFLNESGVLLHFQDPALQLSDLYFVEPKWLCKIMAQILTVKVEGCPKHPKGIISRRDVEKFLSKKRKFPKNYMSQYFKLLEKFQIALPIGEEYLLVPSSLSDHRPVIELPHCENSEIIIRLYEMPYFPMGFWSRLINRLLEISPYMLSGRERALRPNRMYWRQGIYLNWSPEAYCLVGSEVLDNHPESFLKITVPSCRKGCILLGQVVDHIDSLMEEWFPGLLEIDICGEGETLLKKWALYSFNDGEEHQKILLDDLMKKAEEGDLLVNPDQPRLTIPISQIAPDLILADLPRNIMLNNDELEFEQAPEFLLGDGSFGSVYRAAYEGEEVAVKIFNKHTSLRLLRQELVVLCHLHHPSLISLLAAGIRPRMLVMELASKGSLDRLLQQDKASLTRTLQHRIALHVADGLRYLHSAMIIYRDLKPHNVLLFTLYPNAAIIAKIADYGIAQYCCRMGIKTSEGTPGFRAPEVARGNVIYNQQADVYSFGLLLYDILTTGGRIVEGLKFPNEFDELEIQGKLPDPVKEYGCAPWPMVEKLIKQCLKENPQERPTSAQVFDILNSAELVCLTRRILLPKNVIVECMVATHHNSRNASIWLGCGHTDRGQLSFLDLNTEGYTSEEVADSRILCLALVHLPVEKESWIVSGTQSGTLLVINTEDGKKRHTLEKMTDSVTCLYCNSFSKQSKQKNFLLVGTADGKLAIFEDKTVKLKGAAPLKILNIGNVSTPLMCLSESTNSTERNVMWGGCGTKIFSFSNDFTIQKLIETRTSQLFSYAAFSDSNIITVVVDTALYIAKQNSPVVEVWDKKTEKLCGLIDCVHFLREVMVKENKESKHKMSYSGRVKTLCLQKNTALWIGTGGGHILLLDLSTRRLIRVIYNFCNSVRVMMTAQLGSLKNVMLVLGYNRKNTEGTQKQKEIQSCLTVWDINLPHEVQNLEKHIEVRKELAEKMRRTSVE

| melting point | IC50 (LRRK2) | activity at 1 µM (LRRK2) | Selectivity (IC50 of DCLK1/IC50 of LRRK2) (DCLK1) | Selectivity (DCLK1 activity/LRRK2 activity) (DCLK1) | IC50 (DCLK1) | activity at 1 µM (DCLK1) | SMILES | IC50 (HCT116) |
| --- | --- | --- | --- | --- | --- | --- | --- | --- |
| 171 to 172 °C | 132 nM | 16% | 0.40 | 0.44 | 53 nM | 7% | COc1cc(N2CCC(F)(F)CC2)ccc1Nc1ncc2c(n1)N(C)c1ccccc1C(=O)N2C [Compound D14, 2-((4-(4,4-Difluoropiperidin-1-yl)-2-methoxyphenyl)amino)-5,11-dimethyl-5,11-dihydro-6H-benzo[e]pyrimido[5,4-b][1,4]diazepin-6-one] | 15500 nM |
| 237 to 238 °C | > 1000 nM | 49% | <0.07 | 0.20 | 70 nM | 10% | COc1cc(NC(=O)CCC(=O)O)ccc1Nc1ncc2c(n1)N(C)c1ccccc1C(=O)N2C [Compound D2, 4-((4-((5,11-Dimethyl-6-oxo-6,11-dihydro-5H-benzo[e]pyrimido[5,4-b][1,4]diazepin-2-yl)amino)-3-methoxyphenyl)amino)-4-oxobutanoic acid] | > 100000 nM |
| 162 to 163 °C | > 1000 nM | 70% | <0.32 | 0.40 | 324 nM | 28% | CCOc1cc(N2CCC(O)CC2)ccc1Nc1ncc2c(n1)N(C)c1ccccc1C(=O)N2CC [Compound B3, 2-((2-Ethoxy-4-(4-hydroxypiperidin-1-yl)phenyl)amino)-5-ethyl-11-methyl-5,11-dihydro-6H-benzo[e]pyrimido[5,4-b][1,4]diazepin-6-one] | 33200 nM |
